# Laboratory results: patent publication US20240139188A1, “Arylamide Compounds For Treatment And Prevention Of Fungal Infections” (priority 2022, published 2024)
# Read-outs that look alike come from different tables or passages of the source.
# Columns and labels:
# [1] = system: Candida auris; assay: In vitro susceptibility (MIC), macrobroth dilution; format: cell-based; conditions: Candidozyma auris, Candida auris 20-253
# [2] = system: Lomentospora prolificans; assay: In vitro susceptibility (MIC), macrobroth dilution; format: cell-based
# [3] = system: critical fungal pathogens; assay: Checkerboard drug interaction testing (FICi), BRI with conventional antifungals; format: cell-based; conditions: organisms tested, with the exception of Aspergillus
# [4] = system: Aspergillus terreus; assay: In vitro susceptibility (MIC), macrobroth dilution; format: cell-based; conditions: Aspergillus terreus 12-70
# [5] = system: Cryptococcus neoformans; assay: In vitro susceptibility (MIC), macrobroth dilution; format: cell-based; conditions: Cryptococcus neoformans, C. neoformans CN9759, drug alone
# [6] = system: Candida lusitaniae; assay: In vitro susceptibility (MIC), macrobroth dilution; format: cell-based; conditions: Clavispora lusitaniae, Candida lusitaniae 22-16
# [7] = system: Aspergillus niger; assay: In vitro susceptibility (MIC), macrobroth dilution; format: cell-based; conditions: Aspergillus niger 22-4
# [8] = system: A. fumigatus; assay: Alamar blue metabolic activity assay; format: cell-based, Aspergillus fumigatus; conditions: ΔmpkA mutant, BRI 20 μM, 48 hours
# [9] = system: Aspergillus lentulus; assay: In vitro susceptibility (MIC), macrobroth dilution; format: cell-based; conditions: Aspergillus lentulus 14-39
# [10] = system: Candida albicans; assay: In vitro susceptibility (MIC), macrobroth dilution; format: cell-based; conditions: Candida albicans, C. albicans 5, drug alone
# [11] = system: Torulopsis glabrata; assay: In vitro susceptibility (MIC), macrobroth dilution; format: cell-based; conditions: Nakaseomyces glabratus, Torulopsis glabrata 22-21
# [12] = system: Mucorales Unspeciated zygomycete; assay: In vitro susceptibility (MIC), macrobroth dilution; format: cell-based; conditions: Mucorales Unspeciated zygomycete 07-140
# [13] = system: Acremonium species; assay: In vitro susceptibility (MIC), macrobroth dilution; format: cell-based; conditions: Acremonium species 18-51
# [14] = system: C. albicans; assay: BRI+CAS against yeasts, colony forming units; conditions: plating after 48 hours
# Experimental: (§1) Combination of Brilacidin and caspofungin against yeasts: For measuring the effect of the combination BRI+CAS against yeast fungal pathogens, two methods were used: (i) metabolic activity by XTT-assay and (ii) colony forming units (CFUs). For the first method, C. neoformans, C. albicans, and C. auris 10^4 cells were inoculated in RPMI-1640 supplemented with CAS 0 to 32 μg/ml (for C. neoformans) and 0 to 1 μg/ml (for Candida spp.) or the same concentrations of CAS combined with BRI 0.625 μM (for C. neoformans), BRI 20 μM (for C. albicans), and BRI 10 μM (for C. auris). […] XTT-assays were also used for C. albicans caspofungin resistant strains but with CAS 0.5 μg/ml combined with BRI 5, 10 or 20 μM. The same experimental design was used for the CFUs determination, except that after 48 hours the cells present in the wells were plated on YPD (yeast extract 10g, peptone 20g, dextrose 20g, agar 20 g, water 1000 mL) and the plates were incubated at 30° C. for 24-48 hours for determining the survival percentage.
# [15] = system: Candida krusei; assay: In vitro susceptibility (MIC), macrobroth dilution; format: cell-based; conditions: Pichia kudriavzevii, Candida krusei 03-287 (fluconazole-resistant)
# [16] = system: A. fumigatus clinical isolates; assay: Growth inhibition of clinical isolates by CAS, VOR, BRI and combinations
# [17] = system: Exserohilum species; assay: In vitro susceptibility (MIC), macrobroth dilution; format: cell-based; conditions: Exserohilum species 19-48
# [18] = system: Mucorales Mucor species; assay: In vitro susceptibility (MIC), macrobroth dilution; format: cell-based; conditions: Mucor
# [19] = system: C. auris; assay: BRI+CAS against yeasts, colony forming units; conditions: plating after 48 hours
# Experimental: as §1
# [20] = system: Aspergillus fumigatus; assay: In vitro susceptibility (MIC), macrobroth dilution; format: cell-based; conditions: for MIC50 / MIC: Aspergillus fumigatus
# [21] = system: A. fumigatus conidia infecting A549 pulmonary cells; assay: Killing assay in infected A549 cells; format: cell-based, Aspergillus fumigatus; conditions: monotherapy
# Experimental: Killing assay: The type II pneumocyte cell line A549 was cultured using DMEM (ThermoFischer Scientific, Paisley. […] After 24 hours of incubation in 5% CO2 the culture media was removed, and 2 ml of sterile water was added to the wells. A P1000 tip was then used to scrape away the cell monolayer and the cell suspension was collected. This suspension was then diluted 1:1000 and 100 μl was plated on Sabouraud Dextrose Agar Media before the plates were incubated a 37° C. overnight. The numbers of CFUs were determined after 24 hours of growth. A volume of 50 μl of the inoculum adjusted to 103/ml was also plated on SAB agar to correct CFU counts. The CFU percentage for each sample was calculated and the results were plotted using Graphpad Prism (GraphPad Software, Inc., La Jolla, CA, USA).
# [22] = system: C. neoformans; assay: BRI+CAS against yeasts, XTT metabolic activity; conditions: CAS alone, 48 hours
# [23] = system: C. albicans; assay: BRI+CAS against yeasts, XTT metabolic activity; conditions: absence of BRI
# [24] = read-out: 50% Inhibition BRI (MIC50)
# [25] = read-out: 100% Inhibition BRI (MIC100)
# [26] = lowest concentration causing 50% decrease in growth vs untreated control, read-out: MIC50
# [27] = lowest concentration without growth, read-out: MIC100
smiles,measurement,setting,value
"N=C(N)NCCCCC(=O)Nc1cc(C(F)(F)F)cc(NC(=O)c2cc(C(=O)Nc3cc(C(F)(F)F)cc(NC(=O)CCCCNC(=N)N)c3OC3CCNC3)ncn2)c1OC1CCNC1 (stereo not shown) [BRI, brilacidin]",MIC50,[1]; [24],> 64 µg/mL
same,MIC,[1]; [25],> 64 µg/mL
same,MIC50,[2]; [24],4 µg/mL
same,MIC,[2]; [25],8 µg/mL
same,in vitro activity of BRI alone,[3],favorable in vitro activity
same,MIC50,[4]; [24],> 64 µg/mL
same,MIC,[4]; [25],> 64 µg/mL
same,MIC50,[5]; [26],1 µg/mL
same,MIC,[5]; [27],8 µg/mL
same,MIC50,[6]; [24],8 µg/mL
same,MIC,[6]; [25],8 µg/mL
same,MIC50,[7]; [24],8 µg/mL
same,MIC,[7]; [25],16 µg/mL
same,metabolic activity (Alamar blue) in presence vs absence of BRI,[8],significantly decreased metabolic activity
same,MIC50,[9]; [24],32 µg/mL
same,MIC,[9]; [25],> 64 µg/mL
same,MIC50,[10]; [26],4 µg/mL
same,MIC,[10]; [27],> 64 µg/mL
same,MIC50,[11]; [24],64 µg/mL
same,MIC,[11]; [25],> 64 µg/mL
same,MIC50,[12]; [24],2 µg/mL
same,MIC,[12]; [25],16 µg/mL
same,MIC50,[13]; [24],4 µg/mL
same,MIC,[13]; [25],> 64 µg/mL
same,Mechanism,[14]; Candida albicans DPL1006 CAS^R,Fungicidal
same,Mechanism,[14]; Candida albicans DPL1007 CAS^R,Fungicidal
same,Mechanism,[14]; Candida albicans DPL1009 CAS^R,Fungicidal
same,Mechanism,[14]; Candida albicans DPL1010 CAS^R,Fungicidal
same,Mechanism,[14]; Candida albicans DPL1011 CAS^R,Fungicidal
same,Mechanism,[14]; Candida albicans SC5314,Fungicidal
same,MIC50,[15]; [24],8 µg/mL
same,MIC,[15]; [25],16 µg/mL
same,activity of BRI alone,[16]; 25 clinical isolates susceptible to CAS and 3 CAS-resistant clinical strains,no activity
same,"growth, BRI alone","[16]; CM7555 CAS^R, BRI 20 μM",+
same,"growth, BRI alone","[16]; CM7555 CAS^R, BRI 40 μM",+
same,"growth, BRI alone","[16]; DPL1033 CAS^R, BRI 20 μM",+
same,"growth, BRI alone","[16]; DPL1033 CAS^R, BRI 40 μM",+
same,"growth, BRI alone","[16]; MD24053 CAS^R, BRI 20 μM",+
same,"growth, BRI alone","[16]; MD24053 CAS^R, BRI 40 μM",+
same,"growth inhibition, BRI alone","[16]; WT (CEA17), BRI 20 μM",+
same,"growth, BRI alone","[16]; WT, BRI 20 μM",+
same,"growth, BRI alone","[16]; WT, BRI 40 μM",+
same,MIC50,[17]; [24],1 µg/mL
same,MIC,[17]; [25],16 µg/mL
same,MIC50,"[18]; Mucor sp. 13-127, drug alone, lowest concentration causing 50% decrease in growth vs untreated control, read-out: MIC50",4 µg/mL
same,MIC,"[18]; Mucor sp. 13-127, drug alone, lowest concentration without growth, read-out: MIC100",64 µg/mL
same,MIC,"[18]; Mucorales Mucor species, read-out: 100% Inhibition BRI (MIC100)",32 µg/mL
same,Mechanism,[19]; Candida auris 467/2015,Fungicidal
same,Mechanism,[19]; Candida auris 468/2015,Fungicidal
same,Mechanism,[19]; Candida auris 469/2015,Fungicidal
same,Mechanism,[19]; Candida auris 470/2015,Fungicidal
same,Mechanism,[19]; Candida auris 471/2015,Fungicidal
same,MIC100,"[20]; A. fumigatus 21-23, drug alone, lowest concentration without growth",>64 µg/mL
same,MIC50,"[20]; A. fumigatus 10AF, drug alone, lowest concentration causing 50% decrease in growth vs untreated control, read-out: MIC50",64 µg/mL
same,MIC50,"[20]; A. fumigatus 21-23, drug alone, lowest concentration causing 50% decrease in growth vs untreated control, read-out: MIC50",64 µg/mL
same,MIC,"[20]; A. fumigatus 10AF, drug alone, lowest concentration without growth, read-out: MIC100",> 64 µg/mL
same,MIC50,[20]; [24],> 64 µg/mL
same,MIC,[20]; [25],> 64 µg/mL
"CC[C@H](C)C[C@H](C)CCCCCCCCC(=O)N[C@H]1C[C@@H](O)[C@@H](NCCN)NC(=O)[C@@H]2[C@@H](O)CCN2C(=O)[C@H]([C@H](O)CCN)NC(=O)[C@H]([C@H](O)[C@@H](O)c2ccc(O)cc2)NC(=O)[C@@H]2C[C@@H](O)CN2C(=O)[C@H]([C@@H](C)O)NC1=O [CAS, caspofungin]",A. fumigatus killing,[21],25%
same,CAS concentration that completely inhibits metabolic activity (XTT),[22],32 µg/mL
same,"growth, CAS alone","[16]; CM7555 CAS^R, CAS 0.25 μg/mL",+
same,"growth, CAS alone","[16]; CM7555 CAS^R, CAS 2 μg/mL",+
same,"growth, CAS alone","[16]; CM7555 CAS^R, CAS 4 μg/mL",+
same,"growth, CAS alone","[16]; DPL1033 CAS^R, CAS 0.25 μg/mL",+
same,"growth, CAS alone","[16]; DPL1033 CAS^R, CAS 2 μg/mL",+
same,"growth, CAS alone","[16]; DPL1033 CAS^R, CAS 4 μg/mL",+
same,"growth, CAS alone","[16]; MD24053 CAS^R, CAS 0.25 μg/mL",+
same,"growth, CAS alone","[16]; MD24053 CAS^R, CAS 2 μg/mL",+
same,"growth, CAS alone","[16]; MD24053 CAS^R, CAS 4 μg/mL",+
same,"growth, CAS alone","[16]; WT, CAS 0.25 μg/mL",+
same,"growth, CAS alone","[16]; WT, CAS 2 μg/mL",+
same,"growth, CAS alone","[16]; WT, CAS 4 μg/mL",+
same,CAS concentration for complete inhibition of metabolic activity (XTT) and survival (CFUs),[23],~0.125 µg/mL
